Experiment [1] deals with T1, Akt1 (full-length Akt1, active) (Homo sapiens, UniProt P31749).
T1 construct: recombinant full-length human Akt1, containing N-terminal His6 tag; His6 (N); GST (alternative statement of the assay paragraph) (N); purchased Upstate, UK #14-276; host or cells: baculovirus infected Sf21 insect cells
In words: Biochemical Akt1 (active) assay (full-length Akt1), flashplate, Crosstide. The settings on record: Crosstide substrate, 100 nM ATP, 60 minutes at 30° C.; read-out: Akt1 inhibition (full-length Akt1, active): IC50. From the text: For the biochemical Akt1 assay recombinant full-length human Akt1, containing N-terminal His6 tag was cloned and expressed in baculovirus infected Sf21 insect cells. Akt1 is activated with GST-MAPKAP-K2 and PDK1, and repurified on Ni2+/NTA-agrose and glutathioneagarose (Upstate, UK; #14-276).
In order to study the inhibition of Akt1 (full-length version) according to the invention, a flashplate-based assay has been developed.
The full-length Akt1 assay is a biochemical assay using Akt1 N-terminally fused to GST and co-expressed with PDK1 in insect cells. The Akt1 assay is run in 96 well plates by incubating 500 ng/well GST-Akt1, 1 μM Crosstide (N-terminally biotinylated synthetic peptide (KGSGSGRPRTSSFAEG) Upstate, #12-385) as substrate, 10 μl of test compound (test compounds were dissolved as 10 mM solutions in dimethylsulfoxide (DMSO) and subsequently diluted) and 100 nM ATP (including ^33P-ATP) in 100 μl of reaction buffer (50 mM HEPES, pH7.5; 3 mM MgCl2; 3 mM MnCl2; 3 μM Na-Orthovanadat; 1 mM DTT; 1 μg/ml PEG8000) for 60 minutes at 30° C. in 96 well microtiter plates. The reactions are terminated by adding 100 μl stopping buffer (5M NaCl, 35 mM EDTA pH 8,0) for 5 minutes. 190 μl of the reaction mixture are transferred into streptavidin-coated Flashplates (Perkin Elmer, #SMP-103) and incubated for further 30 minutes at room temperature. The plates are washed 3 times by using washing buffer (0.9% NaCl). Relying on the incorporation of ^33P into the peptide substrate crosstide, the detection is based on the specific binding of the biotinylated peptide to the streptavidin-coated surface of scintillator-coated flash plates (NEN, USA; #SMP-103). This phosphorylation is measured by counting the plate for 60 sec. using a plate reader (Wallac Microbeta; Perkin Elmer, USA). The analysis of the data is performed using a biostatistical program (GraphPad Prism, USA).

Experiment [2] addresses T2, Akt1 (full-length Akt1, inactive) (Homo sapiens, UniProt P31749).
T2 construct: recombinant full-length human Akt1 a containing N-terminal His6 tag; His6 (N); purchased Upstate, UK #14-279; host or cells: baculovirus infected Sf21 insect cells
Briefly: Biochemical Akt1 (inactive) assay (full-length Akt1), IMAP, PDK1-dependent activation. The settings on record: activation by PDK1 with PIP3 vesicles, 50 μM ATP, 60 min. at room temperature; read-out: Inhibition of Akt1 activation (full-length Akt1, inactive): IC50. The procedure:
The enzyme is purified using Ni2+/NTA-agarose (Upstate, UK; #14-279).
The enzyme is purified using Ni2+/NTA-agarose.
PDK1-dependent activation and subsequent enzymatic activity of Akt1: Activity of purified human Akt1 is routinely measured in an assay in which the enzyme is first activated by PDK1 in the presence of phosphatidylinositol-3,4,5-triphosphate (PIP3). Once activated, Akt1-dependent phosphorylation of a fluorescence labelled peptide substrate is measured by fluorescence polarisation using the IMAP technology (Molecular Devices).
The phospholipids are prepared as follows: 5 mg DOPC/DOPS are solved in 200 μl 10 mM Tris (pH 7.4) and 300 μg PIP3 are resuspended in 950 μl 10 mM Tris (pH 7.4) by pipetting. 950 μl solved PIP3 are mixed with 50 μl solved DOPC/DOPS and incubated for 2 h at a temperature below 20° C. Then the mixture is subjected to sonification for 30 min. at max. power until a translucent phopholipid vesicle preparation is obtained. Aliquots of the vesicle suspension are frozen at −80° C. until needed, likewise the solved DOPC/DOPS.
Assays are performed in 384-well plates. Incubations are carried out for 60 min. at room temperature. The reaction buffer mixture contains in a final volume of 25 μl: 10 mM Tris pH 7.4, 10 mM MgCl2. 1 mM DTT, and 0,1 mg/ml BSA. In contrast the activation buffer contains: 50 ng/well Akt1, 20 ng/well PDK1, 1.25 μM peptide substrat, 50 μM ATP, and phospholipid vesicles (1:20). Test compounds are added from stock solutions in DMSO before activation of Akt1 by PDK1. After the incubation the beads (IMAP binding reagent; Molecular Devices; 1:167) are added and the fluorescence polarization is measured (excitation 485 nm, emission 530 nm). The analysis of the data is performed using a biostatistical program.

For experiment [3], the system named is MCF7 cells. Briefly: Cellular proliferation/cytotoxicity assay (Alamar Blue), MCF7. The experiment is classed as cell-based. The settings on record: Homo sapiens; MCF7, 48 hours, Alamar Blue (Resazurin); read-out: Anti-proliferative/cytotoxic activity: IC50 MCF7. The procedure: (§1) The anti-proliferative activity of the compounds as described herein, is evaluated using MCF7 and MDA-MB-468 (ATCC HTB-22 and HTB-132) cell lines and the Alamar Blue (Resazurin) cell viability assay (O'Brien et al. Eur J Biochem 267, 5421-5426, 2000). Resazurin is reduced to the fluorescent rescrufin by cellular dehydrogenase activity, correlating with viable, proliferating cells. Test compounds are dissolved as 10 mM solutions in DMSO and subsequently diluted. MCF7 or […] cells were seeded into 96 well flat bottom plates at a density of 10000 cells/well (MCF7) or 5000 cells/well (MDA-MB-468) in a volume of 200 μl/well. 24 hours after seeding, 1 μl each of the compound dilutions are added into each well of the 96 well plates. Each compound dilution is tested as at least as duplicates. Wells containing untreated control cells were filled with 200 μl DMEM containing 0.5% v:v DMSO. The cells are then incubated with the substances for 48 hours at 37° C. in a humidified atmosphere containing 5% carbon dioxide. To determine cell viability, 20 μl of a Resazurin solution (Sigma; 90 mg/l) are added. After 4 hours incubation at 37° C. the fluorescence is measured at an extinction of 544 nm and an emission of 590 nm (Wallac Victor2; Perkin Elmer, USA). For the calculation of the cell viability the emission value from untreated cells is set as 100% viability and the emission rates of treated cells are set in relation to the values of untreated cells. Viabilities are expressed as % values. The corresponding IC50 values of the compounds for cytotoxic activity are determined from the concentration-effect curves by means of non-linear regression. The analysis of the data is performed using a biostatistical program (GraphPad Prism, USA).
(In general: The colour change of resazurin is a common sign of viable cells or microbes.)

In experiment [4] the test system is MDA-MB-468 cells. In words: Cellular proliferation/cytotoxicity assay (Alamar Blue), MDA-MB-468. The experiment is classed as cell-based. The settings on record: Homo sapiens; MDA-MB-468, 48 hours, Alamar Blue (Resazurin); read-out: Anti-proliferative/cytotoxic activity: IC50 MDA468. The procedure: as §1

T2 sequence (P31749 whole entry): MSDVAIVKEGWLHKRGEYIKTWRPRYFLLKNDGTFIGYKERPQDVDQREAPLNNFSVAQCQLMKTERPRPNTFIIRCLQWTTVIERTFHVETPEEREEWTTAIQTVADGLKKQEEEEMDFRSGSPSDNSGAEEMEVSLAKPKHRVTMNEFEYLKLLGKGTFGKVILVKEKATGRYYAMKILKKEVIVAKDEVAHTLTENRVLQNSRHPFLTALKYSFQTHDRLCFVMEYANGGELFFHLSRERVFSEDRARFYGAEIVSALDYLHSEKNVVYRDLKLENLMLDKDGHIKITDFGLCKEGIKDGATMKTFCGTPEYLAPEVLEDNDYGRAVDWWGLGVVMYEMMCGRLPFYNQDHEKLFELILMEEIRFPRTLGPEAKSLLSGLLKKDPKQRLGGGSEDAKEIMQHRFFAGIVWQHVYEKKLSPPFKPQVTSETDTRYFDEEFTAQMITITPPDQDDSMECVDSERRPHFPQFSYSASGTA
T1 sequence (P31749 whole entry): as above

On to `CC(C)(N)c1ccc(C(=O)Nc2ccc(Nc3cc(-c4cccc5c4oc4ccccc45)ncn3)cc2)cc1` [Compound 69, 4-(1-Amino-1-methyl-ethyl)-N-[4-(6-dibenzofuran-4-yl-pyrimidin-4-ylamino)-phenyl]-benzamide trifluoracetate], for which the IC50 in experiment [1] was no more than 1.75 µM; in experiment [2], no more than 4.4 µM; in experiment [3], no more than 16.6 µM; in experiment [4] it was no more than 6.05 µM.

The values above are taken from patent US7879853B2, “4,6-disubstituted pyrimidines and their use as protein kinase inhibitors” (Bayer Schering Pharma AG, priority 2004, dated 2011).
